“And” between values parts separate entries of the source, which are not always exact repeats. Equal entries are not always repeated. Where two headings read alike, the source gives them in different places.
Legend:
Assay type in all cases: in vivo
[1] = tested on: cocaine-dependent volunteers; assay: Behavioral ratings of rush, high, low and craving (integer scale 0 to 3) after cocaine infusion; details: human
From the text: During FAIR and BOLD infusion scans, behavioral measures of rush, high, low, and craving were obtained in a continuous sequence each minute. Thus, over each 15 second epoch, one rating scale would be projected for the subject's response. Given four scales, it took one minute to cycle through the complete set of scales. Timing of scan initiation, infusion onset and offset, and scan completion were linked with ongoing behavioral reports to allow subsequent correlational analysis between behavioral ratings and fMRI acquisitions. Behavioral responses were acquired with a four-button button-press which had been adapted to the magnet environment by construction with non-magnetic components and filtering of its output at the Faraday shield.
To obtain meaningful behavioral ratings during scanning, subjects were trained beforehand. The day before scanning, subjects were interviewed in depth by one of two board-certified psychiatrists to fully describe their experience of cocaine intake. These descriptions were then categorized by the psychiatrist and subject into four components: the rush, high, low, and craving which were to be rated on an integer scale of 0 (none) to 3 (maximum). The individualized conventions for description of subjective responses were then tested, during the unblinded pre-infusion with 0.2 mg/kg cocaine, on a portable computer with a program simulating that used in the MRI.
Of the four behavioral measures, only craving was defined operationally in terms of the action the individual wanted to engage in (to get more cocaine). The other three behavioral measures, rush, high, and low, were defined in terms of subjective feelings which were not necessarily associated with a behavioral output, or associated with the planning and implementation of physical activity. Thus, by definition, only craving was defined as a motivational state. In general, rush experiences involved physical sensations of elevated heart rate and sweating, along with internal feelings variously characterized as ‘speeding’ sensations and sensations of ‘being out-of-control’. In contrast, the high experience was generally associated with feelings of self-confidence, well-being, and sociability. The low experience encompassed all negative subjective feelings potentially associated with cocaine use such as anxiety, paranoia, dysphoria, or anhedonia; the majority of subjects in this study discussed the low in terms of dysphoric affect distinct from a diminishment in the high experience.
Behavioral Data: The integer output for each behavioral rating was segregated by category of rush, high, low, and craving. For the group data in FIG. 2, the 18 measures for each behavioral category obtained during the 18 minute BOLD infusion scan were averaged for the 9 subjects with both interpretable behavioral data and fMRI data. This averaged data was then utilized in the correlational analysis of the cocaine fMRI data.

rat frontal cortex = assay: BOLD fMRI in drug-naive rat after IV cocaine
Procedure: All procedures were carried out in accordance with NIH guidelines. Male Harlan Sprague-Dawley rats (225-300 gm) were anesthetized briefly with 1.5% halothane in oxygen for insertion of left femoral arterial and venous cannulae and placement of tracheostomy for mechanical ventilation (using a 16 gauge intravenous catheter, Inste-W, Becton Dickinson, Sandy, Utah). All wounds were infiltrated with 1% lidocaine before incision. Following surgery, the inspired halothane concentration was reduced to 0.7% and rats were paralyzed with 2 mg/kg intravenous pancuronium, followed by a continuous intravenous infusion of pancuronium at 2 mg/kg/hr. Pancuronium was dissolved in normal saline administered at 5 ml/kg/hr. Rats were mechanically ventilated (in a small animal volume controlled ventilator, Harvard Apparatus, Inc., South Natick, Mass.) with a 80/20 air/oxygen mixture, an inspiratory to expiratory ratio of 1:1, and an initial tidal volume of 3.0 ml at a rate of 40 breaths per minute. […] Arterial blood samples (150 μl) withdrawn from cannula were analyzed for arterial partial pressures of oxygen, carbon dioxide, and pH (Ciba-Coming Model 1304) before administration of drugs, and at the end of each experiment before sacrifice, to ensure animal stability. Arterial blood pressure and rectal temperature were monitored throughout the experiment. […]

[2] = Plasma cocaine levels after IV infusion (liquid chromatography with photodiode array detection); details: human, 0.6 mg/kg IV; for Cmax: plasma, iv
Procedure: Sequential 4 ml venous blood samples were collected immediately before and at 1, 3, 5, 10, 15, 30, 60, 90 and 120 minutes following each infusion. The 120 minute sample for the first infusion was also the pre-infusion sample for the second infusion.
Plasma/Urine Levels: Cocaine quantitative assays were performed by the MGH Clinical Chemistry Laboratory using a liquid chromatography with photodiode array detection method they developed (Puopolo et al., 1992, Clin. Chem. 38:1838-1842), with minor modifications (flow rate increased from 2.0 to 2.6 ml/minute and LCPCN column length increased from 150 to 250 mm). Intra-assay imprecision at […] for cocaine is 5.1%, 5.7% and 6.6% respectively.

[3] = 0.6 mg/kg IV blinded, scale 0-3
[4] = 0.6 mg/kg IV, post-infusion, 0.6 mg/kg

Compound: COC(=O)[C@H]1[C@@H](OC(=O)c2ccccc2)C[C@@H]2CC[C@H]1N2C [cocaine]
- craving rating ([1]; 0.2 mg/kg IV, unblinded): 1.0±1.3
- high rating ([1]; 0.2 mg/kg IV, unblinded): 1.7±1.2
- low rating ([1]; 0.2 mg/kg IV, unblinded): 0.8±0.8
- rush rating ([1]; 0.2 mg/kg IV, unblinded): 1.2±1.1
- peak craving rating [1, 3]: 1.3±0.9
- peak high rating [1, 3]: 2.1±0.8
- peak low rating [1, 3]: 0.9±0.8
- peak rush rating (mean±SD) [1, 3]: 2.2±1.1
- time of peak high ([1]; 0.6 mg/kg IV, post-infusion): 3 min
- time of peak rush ([1]; 0.6 mg/kg IV, post-infusion): 3 min
- time of peak craving [1, 4]: 12 min and 11 to 12 min
- time of peak low [1, 4]: 11 min and 11 to 12 min
- craving rating ([1]; retest infusion, four subjects): 1.0±1.2
- high rating ([1]; retest infusion, four subjects): 2.3±0.5
- low rating ([1]; retest infusion, four subjects): 1.0±0.8
- rush rating ([1]; retest infusion, four subjects): 1.8±1.0
- time of return of BOLD contrast to baseline (rat frontal cortex; cocaine 0.5 mg/kg IV, after infusion): 20 min
- maximal R2 (BOLD contrast) (rat frontal cortex; cocaine 1 mg/kg IV): 2.5 ± 0.6 s⁻¹
- time to peak cocaine plasma concentration, mean±SD ([2]; 4 subjects with re-test experiments): 6.0 ± 2.9 min
- time to peak cocaine plasma concentration, mean±SD ([2]; initial series of experiments, 0.6 mg/kg): 7.6 ± 4.2 min and ~7 min
- Cmax ([2]; 0.6 mg/kg, n=7, range over subjects, read-out: Peak plasma cocaine levels (Cmax), range): 197 to 893 ng/mL
- Cmax ([2]; 0.6 mg/kg, n=7 subjects with complete data, read-out: Peak plasma cocaine levels (Cmax), mean): 389 ± 233 ng/mL
